These results are taken from patent US20240409585A1, “MACROCYCLIC IMMUNOMODULATORS” (priority 2021, published 2024).

Numbered stars: 1 amine (or outer) side, 2 acyl side, 3 side chain; on linkers, the order of the positions; unused ones are H or OH. Bridge positions count the residues as written; N and C are the ends. Square brackets hold non-standard residues; d marks the D form. Peptide text beside a SMILES is read from it. * marks the point of attachment. ξ: configuration not given here. X40 = O=C([C@H](Cc1ccc(-c2cccc(O)c2)cc1)N[*:1])[*:2]; Phe(4-COOH) = N[C@@H](Cc1ccc(C(=O)O)cc1)C(=O)O; Trp(7-Me) = Cc1cccc2c(C[C@H](N)C(=O)O)c[nH]c12; Bip = N[C@@H](Cc1ccc(-c2ccccc2)cc1)C(=O)O; Phe(3-CN) = N#Cc1cccc(C[C@H](N)C(=O)O)c1; Phe(3-OMe) = COc1cccc(C[C@H](N)C(=O)O)c1; Phe(3-Me) = Cc1cccc(C[C@H](N)C(=O)O)c1; d(hPhe) = N[C@H](CCc1ccccc1)C(=O)O; h4Pal = N[C@@H](CCc1ccncc1)C(=O)O; aIle = CC[C@@H](C)[C@H](N)C(=O)O; 4Pal = N[C@@H](Cc1ccncc1)C(=O)O; pS = N[C@@H](COP(=O)(O)O)C(=O)O; Cha = N[C@@H](CC1CCCCC1)C(=O)O; Cit = NC(=O)NCCC[C@H](N)C(=O)O; Carboxymethyl = O=C(O)C*; NMeA = CN[C@@H](C)C(=O)O; Orn = NCCC[C@H](N)C(=O)O; Dab = NCC[C@H](N)C(=O)O; Nva = CCC[C@H](N)C(=O)O; Dap = NC[C@H](N)C(=O)O; ξV = CC(C)C(N)C(=O)O; ξC = NC(CS)C(=O)O; Acm = CC(=O)NC*

The term IC50 denotes the concentration at which inhibition is half-maximal.

T1 sequence (Q15116 25-288): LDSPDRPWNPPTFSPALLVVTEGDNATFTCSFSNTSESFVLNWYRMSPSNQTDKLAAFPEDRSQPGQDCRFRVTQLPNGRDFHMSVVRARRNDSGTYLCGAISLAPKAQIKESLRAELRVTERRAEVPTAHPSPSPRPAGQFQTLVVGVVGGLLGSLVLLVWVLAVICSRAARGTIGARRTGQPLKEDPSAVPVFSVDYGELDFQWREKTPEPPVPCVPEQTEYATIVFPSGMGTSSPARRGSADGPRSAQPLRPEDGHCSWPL

The assay concerns the target T1, PE-labeled human PD-L1-Ig binding to Jurkat cell line over-expressing human PD-1 (Jurkat-PD-1) (Homo sapiens, UniProt Q15116).
T1 construct: expressed in transfected cells; host or cells: Jurkat
The experiment in a line: Jurkat-PD-1 Cell Binding High-Content Screening Assay (CBA): Method 1. The conditions noted are these: Jurkat-hPD-1 cells, PE-labeled PD-L1-Ig 20 nM final; read-out: Jurkat HPDL1 PD1 IC50 (uM) (Method 1).
Regarding `CC(C)C[C@@H]1NC(=O)[C@H](CCCNC(=N)N)NC(=O)[C@@H](CCc2ccccc2)NC(=O)[C@H](C)N(C)C(=O)[C@H](CCCNC(=N)N)NC(=O)[C@H](Cc2ccc(-c3ccccc3)cc2)NC(=O)[C@H](C(C)C)NC(=O)[C@H](Cc2c[nH]c3ccccc23)NC(=O)[C@H](CC(=O)O)NC(=O)[C@H](Cc2ccc(O)cc2)NC(=O)[C@H](Cc2ccccc2)NC(=O)CSC[C@@H](C(=O)NCC(N)=O)NC(=O)[C@H](CO)NC(=O)[C@H](C(C)C)NC1=O` [Compound 1018] ({CH2CO}-FYDWV[Bip]R[NMeA][d(hPhe)]RLVSCG-NH2; thioether N-14), the IC50 was found to be 0.12 µM.

In the case of `Cc1cccc2c(C[C@@H]3NC(=O)[C@H](CC(=O)O)NC(=O)[C@H](Cc4ccc(O)cc4)NC(=O)[C@H](Cc4ccccc4)NC(=O)CSC[C@@H](C(=O)N[C@@H](C)C(N)=O)NC(=O)[C@H](CO)NC(=O)[C@H](C(C)C)NC(=O)[C@H](CC(C)C)NC(=O)[C@H](CC(N)=O)NC(=O)[C@@H](C)NC(=O)[C@H](C)N(C)C(=O)[C@H](C(C)C)NC(=O)[C@H](Cc4ccc(-c5ccccc5)cc4)NC(=O)[C@H](CC(C)C)NC3=O)c[nH]c12` [Compound 1796] ({CH2CO}-FYD[Trp(7-Me)]L[Bip]V[NMeA][dA]NLVSCA-NH2; thioether N-14), the IC50 is 0.16 µM.

For `Cc1cccc(C[C@@H]2NC(=O)[C@H](CC(=O)O)NC(=O)[C@H](CCc3ccncc3)NC(=O)[C@H](CN)NC(=O)CSC[C@@H](C(=O)N[C@@H](C)C(N)=O)NC(=O)[C@H]([C@@H](C)O)NC(=O)[C@H](C(C)C)NC(=O)[C@H](CC(C)C)NC(=O)[C@H](CCN)NC(=O)[C@@H](CC(C)C)NC(=O)[C@H](C)N(C)C(=O)[C@H](CCCNC(N)=O)NC(=O)[C@H](Cc3ccc(-c4ccccc4)cc3)NC(=O)[C@H](C(C)C)NC2=O)c1` [Compound 1547] ({CH2CO}-[Dap][h4Pal]D[Phe(3-Me)]V[Bip][Cit][NMeA][dL][Dab]LVTCA-NH2; thioether N-14), the IC50 was 0.01 µM.

As to `CC(C)C[C@@H]1NC(=O)[C@H](Cc2c[nH]c3ccccc23)NC(=O)[C@H](CC(=O)O)NC(=O)[C@H](Cc2ccc(O)cc2)NC(=O)[C@H](Cc2ccccc2)NC(=O)CSC[C@@H](C(=O)NCC(N)=O)NC(=O)[C@H]([C@@H](C)O)NC(=O)[C@H](C(C)C)NC(=O)[C@H](CC(C)C)NC(=O)[C@H](CC(N)=O)NC(=O)[C@@H](CC(C)C)NC(=O)[C@H](C)N(C)C(=O)[C@H](C(C)C)NC(=O)[C@H](Cc2ccc(-c3ccccc3)cc2)NC1=O` [Compound 1466] ({CH2CO}-FYDWL[Bip]V[NMeA][dL]NLVTCG-NH2; thioether N-14), the concentration for half-maximal inhibition (IC50) came out at 0.02 µM.

Turning to `CC(=O)NCSC[C@@H]1NC(=O)[C@H](CC(C)C)NC(=O)[C@H](CC(N)=O)NC(=O)[C@@H](CC(C)C)NC(=O)[C@H](C)N(C)C(=O)[C@H](CSCNC(C)=O)NC(=O)[C@H](Cc2ccc(-c3ccccc3)cc2)NC(=O)[C@H](CC(C)C)NC(=O)[C@H](Cc2cccc(C)c2)NC(=O)[C@H](CC(=O)O)NC(=O)[C@H](Cc2ccncc2)NC(=O)[C@H](Cc2ccc(OCC(=O)O)cc2)NC(=O)CSCC(C(=O)NCC(N)=O)NC(=O)[C@H](CO)NC1=O` (stereo partly drawn) [Compound 1886] ({CH2CO}-Y(Carboxymethyl)[4Pal]D[Phe(3-Me)]L[Bip]C(Acm)[NMeA][dL]NLC(Acm)S[ξC]G-NH2; thioether N-14), the IC50 came to 0.14 µM.

With `CC[C@@H](C)[C@@H]1NC(=O)[C@H](Cc2ccc(-c3ccccc3)cc2)NC(=O)[C@H](CC(C)C)NC(=O)[C@H](Cc2c[nH]c3ccccc23)NC(=O)[C@H](CC(=O)O)NC(=O)[C@H](Cc2ccc(C(=O)O)cc2)NC(=O)[C@H](Cc2ccc(OCC(=O)O)cc2)NC(=O)CSC[C@@H](C(=O)N[C@@H](CCCCN)C(N)=O)NC(=O)[C@H](CN)NC(=O)C(C(C)C)NC(=O)[C@H](CC(C)C)NC(=O)[C@H](CC(N)=O)NC(=O)[C@@H](CC(C)C)NC(=O)[C@H](C)N(C)C1=O` (stereo partly drawn) [Compound 2108] ({CH2CO}-Y(Carboxymethyl)[Phe(4-COOH)]DWL[Bip][aIle][NMeA][dL]NL[ξV][Dap]CK-NH2; thioether N-14), the IC50 amounted to 0.11 µM.

`COc1cccc(C[C@@H]2NC(=O)[C@H](CC(=O)O)NC(=O)[C@H](Cc3cccc(C#N)c3)NC(=O)[C@H](Cc3ccncc3)NC(=O)CSC[C@@H](C(=O)N[C@@H](C)C(N)=O)NC(=O)[C@@H](CO)NC(=O)[C@H](C(C)C)NC(=O)[C@H](CC(C)C)NC(=O)[C@H](CC(N)=O)NC(=O)[C@@H](C)NC(=O)[C@H](C)N(C)C(=O)[C@H](C(C)C)NC(=O)[C@H](Cc3ccc(-c4ccccc4)cc3)NC(=O)[C@@H](CC(C)C)NC2=O)c1` [Compound 1462] ({CH2CO}-[4Pal][Phe(3-CN)]D[Phe(3-OMe)][dL][Bip]V[NMeA][dA]NLV[dS]CA-NH2; thioether N-14): the IC50 turned out to be 0.01 µM.

`CC(C)C[C@@H]1NC(=O)[C@H](CCN)NC(=O)[C@@H](CC(C)C)NC(=O)[C@H](C)N(C)C(=O)[C@H](CCCNC(=N)N)NC(=O)[C@H](Cc2ccc(-c3cccc(O)c3)cc2)NC(=O)[C@H](C(C)C)NC(=O)[C@H](Cc2c[nH]c3ccccc23)NC(=O)[C@H](CC(=O)O)NC(=O)[C@H](Cc2ccc(O)cc2)NC(=O)[C@H](CC(N)=O)NC(=O)CSC[C@@H](C(=O)N[C@@H](C)C(N)=O)NC(=O)[C@H]([C@@H](C)O)NC(=O)[C@H](C(C)C)NC1=O` [Compound 1212] ({CH2CO}-NYDWV[X40]R[NMeA][dL][Dab]LVTCA-NH2; thioether N-14): the IC50 was determined as 0.69 µM.

On to `CC(C)C[C@@H]1NC(=O)[C@H](CCN)NC(=O)[C@@H](CC(C)C)NC(=O)[C@H](C)N(C)C(=O)[C@H](CCC(=O)O)NC(=O)[C@H](Cc2ccc(-c3ccccc3)cc2)NC(=O)[C@H](C(C)C)NC(=O)[C@H](Cc2c[nH]c3ccccc23)NC(=O)[C@H](CC(=O)O)NC(=O)[C@H](Cc2ccc(OCC(=O)O)cc2)NC(=O)[C@H](Cc2ccc(OCC(=O)O)cc2)NC(=O)CSC[C@@H](C(=O)N[C@@H](C)C(N)=O)NC(=O)[C@H](CO)NC(=O)[C@H](C(C)C)NC1=O` [Compound 1577] ({CH2CO}-Y(Carboxymethyl)Y(Carboxymethyl)DWV[Bip]E[NMeA][dL][Dab]LVSCA-NH2; thioether N-14), for which the IC50 was 0.03 µM.

Turning to `CC(C)C[C@@H]1NC(=O)[C@H](Cc2c[nH]c3ccccc23)NC(=O)[C@H](CC(=O)O)NC(=O)[C@H](Cc2ccc(O)cc2)NC(=O)[C@H](Cc2ccccc2)NC(=O)CSC[C@@H](C(=O)N[C@@H](C)C(N)=O)NC(=O)[C@H](CO)NC(=O)[C@H](CN)NC(=O)[C@H](CC(C)C)NC(=O)[C@H](CC(N)=O)NC(=O)[C@@H](C)NC(=O)[C@H](C)N(C)C(=O)[C@H](C(C)C)NC(=O)[C@H](Cc2ccc(-c3ccccc3)cc2)NC1=O` [Compound 1532] ({CH2CO}-FYDWL[Bip]V[NMeA][dA]NL[Dap]SCA-NH2; thioether N-14), the IC50 worked out at 0.17 µM.

`CC(C)C[C@H]1NC(=O)[C@H](C)N(C)C(=O)[C@H](CCCNC(N)=O)NC(=O)[C@H](Cc2ccc(-c3ccccc3)cc2)NC(=O)[C@H](C(C)C)NC(=O)[C@H](Cc2c[nH]c3ccccc23)NC(=O)[C@H](CC(=O)O)NC(=O)[C@H](Cc2ccc(O)cc2)NC(=O)[C@H](CC(N)=O)NC(=O)CSC[C@@H](C(=O)N[C@@H](C)C(N)=O)NC(=O)[C@H]([C@@H](C)O)NC(=O)[C@H](C(C)C)NC(=O)[C@H](CC2CCCCC2)NC(=O)[C@H](CCCNC(=N)N)NC1=O` [Compound 1304] ({CH2CO}-NYDWV[Bip][Cit][NMeA][dL]R[Cha]VTCA-NH2; thioether N-14): the IC50 is 0.02 µM.

As to `CC(C)C[C@@H]1NC(=O)[C@H](CCCCN)NC(=O)[C@@H](CC(C)C)NC(=O)[C@H](C)N(C)C(=O)[C@H](CCCNC(=N)N)NC(=O)[C@H](Cc2ccc(-c3ccccc3)cc2)NC(=O)[C@H](C(C)C)NC(=O)[C@H](Cc2c[nH]c3ccccc23)NC(=O)[C@H](CC(=O)O)NC(=O)[C@H](Cc2ccc(O)cc2)NC(=O)[C@H](CC(N)=O)NC(=O)CSC[C@@H](C(=O)N[C@@H](CCC(=O)O)C(N)=O)NC(=O)[C@H]([C@@H](C)O)NC(=O)[C@H](C(C)C)NC1=O` [Compound 1173] ({CH2CO}-NYDWV[Bip]R[NMeA][dL]KLVTCE-NH2; thioether N-14), the IC50 turned out to be 0.22 µM.

As to `CC(C)C[C@@H]1NC(=O)[C@H](CCCN)NC(=O)[C@@H](CC(C)C)NC(=O)[C@H](C)N(C)C(=O)[C@H](CCCN)NC(=O)[C@H](Cc2ccc(-c3ccccc3)cc2)NC(=O)[C@H](C(C)C)NC(=O)[C@H](Cc2c[nH]c3ccccc23)NC(=O)[C@H](CC(=O)O)NC(=O)[C@H](Cc2ccc(O)cc2)NC(=O)[C@H](CC(N)=O)NC(=O)CSC[C@@H](C(=O)N[C@@H](C)C(N)=O)NC(=O)[C@H]([C@@H](C)O)NC(=O)[C@H](C(C)C)NC1=O` [Compound 1241] ({CH2CO}-NYDWV[Bip][Orn][NMeA][dL][Orn]LVTCA-NH2; thioether N-14), the IC50 was determined as 0.02 µM.

For `CCC[C@@H]1NC(=O)[C@H](CCCNC(=N)N)NC(=O)[C@@H](CC(C)C)NC(=O)[C@H](C)N(C)C(=O)[C@H](CCCNC(=N)N)NC(=O)[C@H](Cc2ccc(-c3ccccc3)cc2)NC(=O)[C@H](C(C)C)NC(=O)[C@H](Cc2c[nH]c3ccccc23)NC(=O)[C@H](CC(=O)O)NC(=O)[C@H](Cc2ccc(O)cc2)NC(=O)[C@H](Cc2ccccc2)NC(=O)CSC[C@@H](C(=O)N[C@@H](C)C(N)=O)NC(=O)[C@H]([C@@H](C)O)NC(=O)[C@H](C(C)C)NC1=O` [Compound 1113] ({CH2CO}-FYDWV[Bip]R[NMeA][dL]R[Nva]VTCA-NH2; thioether N-14), the IC50 was found to be 0.14 µM.

`CC(C)C[C@@H]1NC(=O)[C@H](Cc2c[nH]c3ccccc23)NC(=O)[C@H](COP(=O)(O)O)NC(=O)[C@H](Cc2ccc(O)cc2)NC(=O)[C@H](Cc2ccccc2)NC(=O)CSC[C@@H](C(=O)N[C@@H](C)C(N)=O)NC(=O)[C@H](CO)NC(=O)[C@H](C(C)C)NC(=O)[C@H](CC(C)C)NC(=O)[C@H](CC(N)=O)NC(=O)[C@@H](C)NC(=O)[C@H](C)N(C)C(=O)[C@H](C(C)C)NC(=O)[C@H](Cc2ccc(-c3ccccc3)cc2)NC1=O` [Compound 1821] ({CH2CO}-FY[pS]WL[Bip]V[NMeA][dA]NLVSCA-NH2; thioether N-14): the IC50 was found to be 0.49 µM.
